Results published in ChEMBL document CHEMBL1909046, “DrugMatrix in vitro pharmacology data”.

Experiments:
[1] = target: 5-hydroxytryptamine receptor 6 (Homo sapiens, UniProt P50406); format: cell membranes, HeLa, Membrane; conditions: hela; note: in other assays of this panel Not Active means under 50% inhibition at 10 µM
[2] = target: T1, 5-hydroxytryptamine receptor 2C (Homo sapiens, UniProt P28335); test: DRUGMATRIX: Serotonin (5-Hydroxytryptamine) 5-HT2C radioligand binding (ligand: [3H] Mesulergine); format: cell membranes, CHO-K1, Membrane; conditions: cho-k1; Not Active = under 50% inhibition at 10 µM
T1 sequence (P28335 whole entry): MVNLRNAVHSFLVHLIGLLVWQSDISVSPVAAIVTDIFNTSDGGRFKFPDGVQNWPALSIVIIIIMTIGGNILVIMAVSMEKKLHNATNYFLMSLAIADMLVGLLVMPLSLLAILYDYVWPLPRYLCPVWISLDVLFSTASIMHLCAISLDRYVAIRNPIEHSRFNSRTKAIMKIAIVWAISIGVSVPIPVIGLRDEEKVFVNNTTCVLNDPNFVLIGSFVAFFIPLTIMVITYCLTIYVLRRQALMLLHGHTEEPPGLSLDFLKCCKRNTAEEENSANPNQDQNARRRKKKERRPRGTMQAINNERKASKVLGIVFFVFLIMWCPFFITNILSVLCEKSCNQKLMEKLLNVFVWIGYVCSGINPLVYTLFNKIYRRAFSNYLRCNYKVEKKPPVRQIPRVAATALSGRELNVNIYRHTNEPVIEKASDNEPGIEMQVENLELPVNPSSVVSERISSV

[3] = target: T2, Receptor-type tyrosine-protein phosphatase C (Homo sapiens, UniProt P08575); set-up: species or system Escherichia coli;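 note: inhibition of CD45 enzyme activity measured using DiFMUP as substrate; in other assays of this panel Not Active means under 50% inhibition at 10 µM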
T2 sequence (P08575 whole entry): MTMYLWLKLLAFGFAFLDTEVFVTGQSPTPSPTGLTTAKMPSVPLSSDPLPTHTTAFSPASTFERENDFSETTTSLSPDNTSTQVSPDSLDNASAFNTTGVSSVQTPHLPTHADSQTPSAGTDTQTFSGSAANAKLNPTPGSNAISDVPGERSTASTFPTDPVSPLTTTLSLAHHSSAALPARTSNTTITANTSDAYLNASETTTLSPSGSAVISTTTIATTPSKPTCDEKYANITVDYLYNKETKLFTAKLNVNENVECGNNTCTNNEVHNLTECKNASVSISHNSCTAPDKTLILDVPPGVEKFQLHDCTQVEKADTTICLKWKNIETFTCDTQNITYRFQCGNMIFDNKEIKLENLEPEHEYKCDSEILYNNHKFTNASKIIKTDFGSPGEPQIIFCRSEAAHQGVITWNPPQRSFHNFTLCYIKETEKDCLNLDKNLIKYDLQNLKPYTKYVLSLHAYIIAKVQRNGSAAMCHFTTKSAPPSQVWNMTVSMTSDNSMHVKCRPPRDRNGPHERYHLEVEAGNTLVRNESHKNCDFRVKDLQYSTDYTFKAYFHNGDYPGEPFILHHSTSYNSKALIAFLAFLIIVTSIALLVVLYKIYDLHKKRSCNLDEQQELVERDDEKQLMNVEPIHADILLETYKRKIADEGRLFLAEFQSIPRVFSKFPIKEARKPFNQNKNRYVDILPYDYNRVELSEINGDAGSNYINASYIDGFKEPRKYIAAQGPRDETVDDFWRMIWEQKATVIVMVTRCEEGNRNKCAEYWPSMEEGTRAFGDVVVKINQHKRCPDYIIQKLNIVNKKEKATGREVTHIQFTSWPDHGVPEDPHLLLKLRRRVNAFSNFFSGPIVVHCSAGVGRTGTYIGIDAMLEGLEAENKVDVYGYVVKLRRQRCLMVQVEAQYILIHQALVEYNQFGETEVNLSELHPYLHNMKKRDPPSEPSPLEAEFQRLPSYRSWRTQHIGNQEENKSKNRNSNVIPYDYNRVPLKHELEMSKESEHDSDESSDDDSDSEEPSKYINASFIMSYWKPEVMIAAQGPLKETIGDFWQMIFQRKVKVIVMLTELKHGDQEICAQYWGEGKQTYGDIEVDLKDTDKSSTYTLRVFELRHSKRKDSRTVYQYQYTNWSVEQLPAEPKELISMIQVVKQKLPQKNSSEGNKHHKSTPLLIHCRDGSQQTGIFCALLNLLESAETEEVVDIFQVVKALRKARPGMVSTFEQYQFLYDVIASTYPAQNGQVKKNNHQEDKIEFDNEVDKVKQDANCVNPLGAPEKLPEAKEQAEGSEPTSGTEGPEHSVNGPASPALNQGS

[4] = DRUGMATRIX: Nicotinic Acetylcholine radioligand binding (ligand: [125I] Epibatidine); format: cell membranes, Membrane; conditions: imr-32; Not Active = under 50% inhibition at 10 µM
Cytochrome P450 1A2 = target: T3, Cytochrome P450 1A2 (Homo sapiens, UniProt P05177); conditions: bti-tn-5b1-4; note: in other assays of this panel Not Active means under 50% inhibition at 10 µM
T3 sequence (P05177 whole entry): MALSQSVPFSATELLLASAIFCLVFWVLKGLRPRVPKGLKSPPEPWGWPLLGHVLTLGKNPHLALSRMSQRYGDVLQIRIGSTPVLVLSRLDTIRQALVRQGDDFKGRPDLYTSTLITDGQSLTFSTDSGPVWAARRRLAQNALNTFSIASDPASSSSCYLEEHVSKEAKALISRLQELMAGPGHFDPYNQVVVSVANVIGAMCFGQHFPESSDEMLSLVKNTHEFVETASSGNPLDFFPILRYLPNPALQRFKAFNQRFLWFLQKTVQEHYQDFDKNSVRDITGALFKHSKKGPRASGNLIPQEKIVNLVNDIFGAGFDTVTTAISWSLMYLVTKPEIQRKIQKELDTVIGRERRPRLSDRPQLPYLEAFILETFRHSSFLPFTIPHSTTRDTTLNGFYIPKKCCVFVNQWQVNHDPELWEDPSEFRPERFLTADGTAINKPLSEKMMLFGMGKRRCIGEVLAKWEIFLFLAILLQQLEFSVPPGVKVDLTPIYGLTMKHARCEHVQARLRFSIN

[5] = DRUGMATRIX: Phosphodiesterase PDE3 enzyme inhibition (substrate: [3H]cAMP + cAMP); format: tissue-based, Homo sapiens; conditions: platelet; Not Active = under 50% inhibition at 10 µM
[6] = target: Delta-type opioid receptor (Homo sapiens, UniProt P41143); format: cell membranes, Membrane; conditions: hek293; note: in other assays of this panel Not Active means under 50% inhibition at 10 µM
Chain of Delta-type opioid receptor (P41143 whole entry): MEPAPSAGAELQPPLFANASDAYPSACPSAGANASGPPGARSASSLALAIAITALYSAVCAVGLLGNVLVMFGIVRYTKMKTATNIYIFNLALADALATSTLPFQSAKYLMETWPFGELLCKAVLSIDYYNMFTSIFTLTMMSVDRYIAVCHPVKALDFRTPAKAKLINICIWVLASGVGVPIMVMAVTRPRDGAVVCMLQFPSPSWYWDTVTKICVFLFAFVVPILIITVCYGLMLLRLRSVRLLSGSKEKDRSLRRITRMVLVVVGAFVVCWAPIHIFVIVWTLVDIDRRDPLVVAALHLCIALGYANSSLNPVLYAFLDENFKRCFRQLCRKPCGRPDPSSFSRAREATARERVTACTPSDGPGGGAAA

Chain of 5-hydroxytryptamine receptor 6 (P50406 whole entry): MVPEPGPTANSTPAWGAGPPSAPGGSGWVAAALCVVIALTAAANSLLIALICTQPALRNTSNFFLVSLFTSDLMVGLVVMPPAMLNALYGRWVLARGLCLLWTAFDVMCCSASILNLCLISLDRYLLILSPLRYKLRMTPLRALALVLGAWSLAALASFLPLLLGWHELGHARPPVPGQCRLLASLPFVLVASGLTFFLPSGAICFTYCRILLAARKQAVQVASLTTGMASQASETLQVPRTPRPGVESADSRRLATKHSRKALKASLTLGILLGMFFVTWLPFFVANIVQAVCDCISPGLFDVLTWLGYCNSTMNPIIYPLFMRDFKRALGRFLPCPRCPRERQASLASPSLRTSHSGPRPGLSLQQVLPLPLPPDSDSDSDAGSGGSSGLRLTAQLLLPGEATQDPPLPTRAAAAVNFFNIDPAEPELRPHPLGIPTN

C[C@]12C=CC(=O)C=C1CC[C@@H]1[C@@H]2[C@@H](O)C[C@@]2(C)[C@H]1CC[C@]2(O)C(=O)CO [PREDNISOLONE]
Not Active: IC50 [1] | IC50 [2] | IC50 [3] | IC50 [4] | Ki [4] | IC50 (Cytochrome P450 1A2) | Ki (Cytochrome P450 1A2) | IC50 [5] | Ki [5] | IC50 [6]

CC(=O)[C@H]1[C@H](C#N)C[C@H]2[C@@H]3CC=C4C[C@@H](O)CC[C@]4(C)[C@H]3CC[C@@]21C [PREGNENOLONE CARBONITRILE]
Not Active: IC50 [1] | IC50 [2] | IC50 [3] | IC50 [4] | Ki [4] | IC50 (Cytochrome P450 1A2) | Ki (Cytochrome P450 1A2) | IC50 [5] | Ki [5] | IC50 [6]

CCCN(CCC)S(=O)(=O)c1ccc(C(=O)O)cc1 [PROBENECID]
Not Active: IC50 [1] | IC50 [2] | IC50 [3] | IC50 [4] | Ki [4] | IC50 (Cytochrome P450 1A2) | Ki (Cytochrome P450 1A2) | IC50 [5] | Ki [5] | IC50 [6]

CCCOc1ccc(C(=O)OCCN(CC)CC)cc1N [PROPARACAINE]
Not Active: IC50 [1] | IC50 [2] | IC50 [3] | IC50 [4] | Ki [4] | IC50 (Cytochrome P450 1A2) | Ki (Cytochrome P450 1A2) | IC50 [5] | Ki [5] | IC50 [6]

C[C@@H]1O[C@@H](O[C@@H]2C=C3CC[C@@H]4[C@H](CC[C@]5(C)[C@@H](c6ccc(=O)oc6)CC[C@]45O)[C@@]3(C)CC2)[C@H](O)[C@H](O)[C@H]1O [PROSCILLARIDIN]
Not Active: IC50 [1] | IC50 [2] | IC50 [3] | IC50 [4] | Ki [4] | IC50 (Cytochrome P450 1A2) | Ki (Cytochrome P450 1A2) | IC50 [5] | Ki [5] | IC50 [6]

Oc1cccc(O)c1O [PYROGALLOL]
Not Active: IC50 [1] | IC50 [2] | IC50 [3] | IC50 [4] | Ki [4] | IC50 (Cytochrome P450 1A2) | Ki (Cytochrome P450 1A2) | IC50 [5] | Ki [5] | IC50 [6]

AURANOFIN
Not Active: IC50 [1] | Ki [1] | IC50 [2] | Ki [2] | IC50 [3] | Ki [3] | IC50 [4] | Ki [4] | IC50 (Cytochrome P450 1A2) | Ki (Cytochrome P450 1A2) | IC50 [5] | Ki [5] | IC50 [6] | Ki [6]

GADOPENTETATE DIMEGLUMINE
Not Active: IC50 [1] | Ki [1] | IC50 [2] | Ki [2] | IC50 [3] | Ki [3] | IC50 [4] | Ki [4] | IC50 (Cytochrome P450 1A2) | Ki (Cytochrome P450 1A2) | IC50 [5] | Ki [5] | IC50 [6] | Ki [6]

GENTAMICIN
Not Active: IC50 [1] | Ki [1] | IC50 [2] | Ki [2] | IC50 [3] | Ki [3] | IC50 [4] | Ki [4] | IC50 (Cytochrome P450 1A2) | Ki (Cytochrome P450 1A2) | IC50 [5] | Ki [5] | IC50 [6] | Ki [6]

GRAMICIDIN
Not Active: IC50 [1] | Ki [1] | IC50 [2] | Ki [2] | IC50 [3] | Ki [3] | IC50 [4] | Ki [4] | IC50 (Cytochrome P450 1A2) | Ki (Cytochrome P450 1A2) | IC50 [5] | Ki [5] | IC50 [6] | Ki [6]

NYSTATIN
Not Active: IC50 [1] | Ki [1] | IC50 [2] | Ki [2] | IC50 [3] | Ki [3] | IC50 [4] | Ki [4] | IC50 (Cytochrome P450 1A2) | Ki (Cytochrome P450 1A2) | IC50 [5] | Ki [5] | IC50 [6] | Ki [6]
